The values that follow come from article PMC8260592 (Scientific Reports, 2021).

Entries after “also recorded” stand apart in the source; their conditions may differ. Where two headings read alike, the source gives them in different places. Where only a bound is given, the exact number is not on record here.

Series [1] relates to Madin-Darby canine kidney (MDCK) cells. Description: Cytotoxicity test, CCK-8 assay. The conditions noted are these: 50 µM, 24 h, CCK-8. The procedure: (§1) Madin-Darby canine kidney (MDCK) cells and human acute promyelocytic leukemia (HL-60) cells were obtained from the Korean Cell Line Bank (Seoul, Korea). […] Cultures were maintained at 37 °C under 5% CO2, and media were changed every two days.
(§2) Cell viabilities were determined using the CCK-8 assay. Briefly, MDCK cells or HL-60 cells were resuspended at 1 × 10^5 or 3 × 10^5 cells/mL and suspensions (100 µL) were added to wells of a 96-well plate and incubated in 5% CO2 atmosphere at 37 °C for 24 h. After incubation, 100 µL of each medium was treated with compounds at 1, 3, 10, 30, or 50 µM and incubated in 5% CO2 at 37 °C for 24 h. CCK-8 (10 µL/well) was then added to 100 µL aliquots from each cell and incubated 2–4 h. Absorbances were measured at 450 nm using a microplate reader (Versamax, Molecular Devices, San Jose, CA, USA).
(§3) Both cell lines were treated with each compound (at 1, 3, 10, 30, or 50 µM) for 24 h. Culture supernatants were then removed and CCK-8 was added. […] Data are expressed as the means ± SDs of triplicate experiments.

Series [2] can be described thus: Cytotoxicity test, CCK-8 assay. The procedure:
as §1, §2, §3

The test system of series [3] is human acute promyelocytic leukemia (HL-60) cells. The experiment in a line: Cytotoxicity test, CCK-8 assay. The following applies: 50 µM, 24 h, CCK-8. The method, then: as §1, §2, §3
In series [4] the target is T1, BACE-1 (Homo sapiens, UniProt P56817).
T1 construct: purchased Sigma-Aldrich
The experiment in a line: BACE-1 activity detection kit (fluorescence). The format is biochemical. The following applies: read-out: Residual activity at 10 µM (%) BACE-1.

Series [5] addresses T2, Recombinant human MAO-A (Homo sapiens, UniProt P21397).
T2 construct: purchased Sigma-Aldrich
T2 sequence (P21397 1-527): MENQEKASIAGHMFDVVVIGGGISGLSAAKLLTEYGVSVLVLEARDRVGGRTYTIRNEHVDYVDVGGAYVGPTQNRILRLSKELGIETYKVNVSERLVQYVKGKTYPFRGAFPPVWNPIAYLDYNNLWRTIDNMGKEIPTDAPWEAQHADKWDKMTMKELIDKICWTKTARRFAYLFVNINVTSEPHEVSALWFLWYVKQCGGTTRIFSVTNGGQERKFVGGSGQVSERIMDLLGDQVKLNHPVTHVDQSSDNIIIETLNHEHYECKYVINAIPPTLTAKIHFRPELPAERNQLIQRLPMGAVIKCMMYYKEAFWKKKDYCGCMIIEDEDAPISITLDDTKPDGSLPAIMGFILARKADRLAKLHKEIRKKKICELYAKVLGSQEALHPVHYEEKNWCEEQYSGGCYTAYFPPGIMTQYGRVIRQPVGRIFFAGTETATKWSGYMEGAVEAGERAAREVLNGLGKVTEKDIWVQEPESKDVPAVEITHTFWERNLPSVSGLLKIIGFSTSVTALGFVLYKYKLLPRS
Description: biochemical. The conditions noted are these: for remaining activity at 10 µM: read-out: Residual activity at 10 µM (%) MAO-A. The procedure:
(§4) AChE and BChE inhibitory activities were measured after preincubating enzymes with inhibitors for 15 min before adding substrates (ATCI and BTCI, respectively) and DTNB. AChE activities were assayed as previously described, with slight modification[21],[22]. […] MAO-A and MAO-B activities were determined using a continuous spectrophotometric method, as described previously[23],[24]. […] Reaction rates are expressed as changes in absorbance per min.
(§5) Inhibitory patterns and Ki values were determined using Lineweaver–Burk (LB) plots and secondary plots of LB slopes.

Series [6] addresses T3, MAO-B (Homo sapiens, UniProt P27338).
T3 construct: purchased Sigma-Aldrich
T3 sequence (P27338 1-520): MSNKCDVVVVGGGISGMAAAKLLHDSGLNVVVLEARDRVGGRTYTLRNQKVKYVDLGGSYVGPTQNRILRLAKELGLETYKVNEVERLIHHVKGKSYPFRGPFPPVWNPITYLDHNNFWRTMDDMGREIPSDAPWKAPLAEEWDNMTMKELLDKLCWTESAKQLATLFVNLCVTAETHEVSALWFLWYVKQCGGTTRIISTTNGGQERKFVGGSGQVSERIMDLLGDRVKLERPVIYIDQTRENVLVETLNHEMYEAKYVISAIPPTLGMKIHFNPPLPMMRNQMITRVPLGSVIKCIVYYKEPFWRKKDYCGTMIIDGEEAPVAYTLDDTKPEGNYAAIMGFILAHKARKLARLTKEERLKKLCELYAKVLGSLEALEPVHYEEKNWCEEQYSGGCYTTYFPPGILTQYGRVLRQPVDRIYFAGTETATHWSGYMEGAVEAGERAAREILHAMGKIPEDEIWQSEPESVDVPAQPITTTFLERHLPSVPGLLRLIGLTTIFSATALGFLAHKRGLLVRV
Description: biochemical. The following applies: for remaining activity at 10 µM: read-out: Residual activity at 10 µM (%) MAO-B. The method, then: as §4, §5

Series [7] addresses T4, AChE (Electrophorus electricus, UniProt O42275). Description: Reversibility of AChE inhibition by dialysis. It counts as biochemical. The procedure: (§6) After preincubating three compounds or reference inhibitors with enzymes for 15 min, residual activities of undialyzed (AU) and dialyzed (AD) samples were expressed as percentages of those of non-inhibitor treated controls. Reversibilities were assessed using AU and AD values and compared with those of reference compounds.
(§7) After preincubating the compounds with enzymes for 15 min, the mixtures were dialyzed for 6 h with two buffer changes. Results are the averages of duplicate or triplicate experiments.

Series [8] concerns the target T4, AChE. Description: Kinetics of AChE inhibition (Lineweaver-Burk and secondary plots). The format is biochemical. The following applies: for Mode of AChE inhibition: LB plots. The method, then: as §5
Substrate concentrations ranged from 0.05 to 1.0 mM. […] Initial reaction rates are expressed as increases in absorbance per min.

For series [9], the target named is T5, BChE (equine serum) (Equus caballus, UniProt P81908).
T5 construct: BChE (equine serum); purchased Sigma-Aldrich; host or cells: equine serum
The experiment in a line: biochemical. The conditions noted are these: for remaining activity at 10 µM: read-out: Residual activity at 10 µM (%) BChE. The method, then: (§8) AChE and BChE inhibitory activities were measured after preincubating enzymes with inhibitors for 15 min before adding substrates (ATCI and BTCI, respectively) and DTNB. AChE activities were assayed as previously described, with slight modification[21],[22]. […] MAO-A and MAO-B activities were determined using a continuous spectrophotometric method, as described previously[23],[24]. […] Reaction rates are expressed as changes in absorbance per min. […]

Series [10] deals with AChE (Type VI-S from Electrophorus electricus) (Electrophorus electricus, UniProt O42275). The experiment in a line: biochemical. The following applies: for SI: IC50 for BChE divided by IC50 for AChE; for remaining activity at 10 µM: read-out: Residual activity at 10 µM (%) AChE. The procedure:
as §8

Series [11] relates to MAO-B. The conditions noted are these: ref 22; cited from earlier work.
Series [12] relates to AChE. The conditions noted are these: cited from earlier work.
Series [13] deals with MAO-B. The following applies: rat brain mitochondrial fractions; cited from earlier work.
The target of series [14] is T3, MAO-B. The experiment in a line: Kinetics of MAO-B inhibition (Lineweaver-Burk and secondary plots). It counts as biochemical. The method, then: as §5
The target in series [15] is T3, MAO-B. The experiment in a line: Reversibility of MAO-B inhibition by dialysis. The format is biochemical. The procedure:
as §6, §7

T4 sequence (O42275 24-633): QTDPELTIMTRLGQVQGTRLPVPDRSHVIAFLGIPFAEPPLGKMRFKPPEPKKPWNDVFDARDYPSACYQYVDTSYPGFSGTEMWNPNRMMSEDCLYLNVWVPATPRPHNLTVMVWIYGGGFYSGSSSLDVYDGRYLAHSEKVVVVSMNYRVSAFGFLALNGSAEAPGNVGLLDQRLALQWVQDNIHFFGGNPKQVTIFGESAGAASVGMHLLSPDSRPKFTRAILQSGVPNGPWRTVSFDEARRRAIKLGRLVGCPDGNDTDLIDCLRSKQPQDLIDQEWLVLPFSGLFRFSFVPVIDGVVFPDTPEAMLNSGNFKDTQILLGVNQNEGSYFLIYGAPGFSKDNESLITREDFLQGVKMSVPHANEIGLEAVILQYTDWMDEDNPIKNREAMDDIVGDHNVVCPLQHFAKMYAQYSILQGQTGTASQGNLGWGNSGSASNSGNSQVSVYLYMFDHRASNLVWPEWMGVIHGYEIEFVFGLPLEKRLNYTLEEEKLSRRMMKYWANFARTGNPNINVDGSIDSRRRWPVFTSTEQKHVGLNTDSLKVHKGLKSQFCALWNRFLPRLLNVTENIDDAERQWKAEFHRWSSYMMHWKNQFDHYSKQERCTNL
Sequence of AChE (Type VI-S from Electrophorus electricus) (O42275 24-633): as above
T5 sequence (P81908 whole entry): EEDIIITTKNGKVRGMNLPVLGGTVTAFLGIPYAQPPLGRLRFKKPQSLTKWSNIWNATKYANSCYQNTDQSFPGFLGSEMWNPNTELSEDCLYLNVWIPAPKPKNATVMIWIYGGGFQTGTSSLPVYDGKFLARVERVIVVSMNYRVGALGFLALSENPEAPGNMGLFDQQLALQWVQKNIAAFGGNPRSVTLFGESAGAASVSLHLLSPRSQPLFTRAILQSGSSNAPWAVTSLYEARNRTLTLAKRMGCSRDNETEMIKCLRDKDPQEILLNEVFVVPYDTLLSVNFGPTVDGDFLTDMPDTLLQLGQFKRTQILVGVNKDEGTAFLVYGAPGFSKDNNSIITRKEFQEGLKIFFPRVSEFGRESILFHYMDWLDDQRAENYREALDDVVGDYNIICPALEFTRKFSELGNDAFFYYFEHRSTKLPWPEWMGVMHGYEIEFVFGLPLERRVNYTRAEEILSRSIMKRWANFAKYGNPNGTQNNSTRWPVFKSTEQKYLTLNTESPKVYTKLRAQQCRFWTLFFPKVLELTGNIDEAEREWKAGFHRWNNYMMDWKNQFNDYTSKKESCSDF
T1 sequence (P56817 46-457): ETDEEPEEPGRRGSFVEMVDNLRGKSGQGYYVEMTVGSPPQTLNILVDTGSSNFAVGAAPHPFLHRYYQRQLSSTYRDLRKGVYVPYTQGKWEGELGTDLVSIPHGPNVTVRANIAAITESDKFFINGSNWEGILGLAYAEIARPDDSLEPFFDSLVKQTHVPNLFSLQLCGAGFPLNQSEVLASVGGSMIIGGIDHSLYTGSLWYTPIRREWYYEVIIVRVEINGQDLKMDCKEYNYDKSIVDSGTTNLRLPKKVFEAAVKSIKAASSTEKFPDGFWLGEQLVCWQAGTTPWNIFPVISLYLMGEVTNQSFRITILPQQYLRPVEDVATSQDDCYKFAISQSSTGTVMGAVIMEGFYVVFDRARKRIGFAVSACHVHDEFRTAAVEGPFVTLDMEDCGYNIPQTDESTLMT

With `COc1cc2c(=O)oc3c(OC)c(O)cc4c(=O)oc(c1OC)c2c34` [Compound 4, 3,3′,4-tri-O-methylellagic acid], the MDCK cell viability entry in series [1] was “slightly or non-toxic; also recorded: non-toxic or slightly toxic”. In addition, the viability at 24 h, 50 µM turned out to be 67.9% in series [2] (dog, MDCK cells) and 84.6% in [2] (human, HL-60 cells). Besides, the HL-60 cell viability result in series [3] was “non-toxic or slightly toxic”. For the same compound, the remaining activity at 10 µM in series [4] stood at 90.1 ± 0.4%; in series [5], 83.1 ± 4.7%; in series [6], 89.1 ± 4.1%; in [9], 92.3 ± 2.3%; in [10], 53.2%. The 50% inhibitory concentration (IC50) is over 40 µM in series [5] (read-out: IC50 (µM) MAO-A), over 40 µM in [6] (read-out: IC50 (µM) MAO-B), over 40 µM in [9] and 10.7 ± 1 µM in [10]. For the same compound, in [7], the “Reversibility of AChE inhibition” value is recorded as “reversibly; also recorded: reversible inhibitors”. Moreover, the “Mode of AChE inhibition” value in [8] is listed as “competitively; also recorded: competitive but partly mixed; also recorded: competitive but partially mixed”. The Ki in [8] (secondary plots of LB slopes, substrate 0.05-1.0 mM, read-out: Ki for AChE) is 3.74 ± 0.26 µM. The same compound gave an SI in [10] of over 3.7. Moreover, the inhibition at 10 µM in series [10] (read-out: Inhibition of AChE) is about 50%.
On to `COc1cc(C[C@H](C)[C@H](C)Cc2ccc3c(c2)OCO3)ccc1O` [macelignan], for which the IC50 is 7.42 µM in series [11] and 4.16 µM in [12] (ref 22).
Take `O=c1oc2c(O)c(O)cc3c(=O)oc4c(O)c(O)cc1c4c23` [Compound 5, ellagic acid]: the IC50 in series [13] was 0.412 µM; in series [12] (ref 43), 133 µM; in [5], over 40 µM; in series [6], 9.21 ± 0.16 µM; in [9] it was over 40 µM; in series [10], 41.7 ± 2.4 µM. Further, the MDCK cell viability entry in series [1] was “slightly or non-toxic; also recorded: negligible effects; also recorded: non-toxic or slightly toxic”. The HL-60 cell viability result in series [3] is listed as “negligible effects; also recorded: non-toxic or slightly toxic”. Moreover, the remaining activity at 10 µM in series [4] stood at 59.1 ± 0.3%; in series [5] it was 99.5 ± 0.7%; in series [6] it was 45.4 ± 4.1%; in series [9], 96.9 ± 5.8%; in series [10] it was 81.5 ± 4.2%. The Ki in series [14] was 7.51 ± 1.86 µM; in series [8] it was 9.43 ± 2.51 µM. Also, the “Mode of MAO-B inhibition” value in series [14] (LB plots) is given as “competitive”. The inhibition at 10 µM in series [6] (10 µM) is over 50%. Further, the “Reversibility of AChE inhibition” value in series [7] was “reversibly; also recorded: reversible inhibitors”. For the same compound, the “Mode of AChE inhibition” value in series [8] is reported as “competitively; also recorded: competitive but partly mixed; also recorded: competitive but partially mixed”. Further, the “Reversibility of MAO-B inhibition” value in series [15] is “reversible inhibitors”. Moreover, the SI in series [10] is on record as over 1.0.
